The values below are quoted from earlier work in patent US20080081070A1, “PHARMACEUTICAL FORMULATION WITH ENHANCED SOLUBILITY FOR THE DELIVERY OF CORTICOSTEROIDS” (priority 2006, published 2008).

The conditions of series [1]: animal studies.
Experiment in series [2]: not given
This is another data set of the same source.

The subject of series [3] is mild and moderately active Crohn's disease.
[4] abbreviates: oral dosing of radiolabeled drug, humans.

The structures appear in SMILES notation. ≈ marks a conversion by molar mass, not a printed value.

`CCCC1O[C@@H]2C[C@H]3[C@@H]4CCC5=CC(=O)C=C[C@]5(C)[C@H]4[C@@H](O)C[C@]3(C)[C@]2(C(=O)CO)O1` (stereo partly shown) [budesonide]: in the series on Crohn's disease (clinical studies), the “clinical features of hypercortisolism compared with prednisone” value was “fewer” and the “likelihood of maintaining a normal plasma cortisol level compared with prednisone” value is given as “greater likelihood”. In addition, the “bone mineral density compared with prednisone” value in the series with Crohn's disease (two-year study) was “decreased less”.
As for `CCC(=O)O[C@]1(C(=O)O)[C@H](C)C[C@H]2[C@@H]3C[C@H](F)C4=CC(=O)C=C[C@]4(C)[C@@]3(F)[C@@H](O)C[C@@]21C` [17-β-carboxylic acid], the pharmacologic activity entry in series [1] is on record as “negligible”.
In the case of `CCC(=O)O[C@]1(C(=O)SCF)[C@H](C)C[C@H]2[C@@H]3C[C@H](F)C4=CC(=O)C=C[C@]4(C)[C@@]3(F)[C@@H](O)C[C@@]21C` [Fluticasone propionate, S-fluoromethyl-6-α-9-difluoro-11-β-hydroxy-16-α-methyl-3-oxoandrosta-1,4-diene-17-β-carbothioate, 17-propionate], under “95% ethanol”, the “solubility in 95% ethanol” value is given as “slightly soluble”. For the same compound, the “solubility in dimethyl sulfoxide” value (dimethyl sulfoxide) was “freely soluble”. Besides, the solubility in dimethyl-formamide result (dimethyl-formamide) is “freely soluble”. Where the note is “methanol”, the solubility in methanol entry is recorded as “slightly soluble”. The solubility in water (water) was 0.14 µg/mL (≈ 0.28 µM). The total blood clearance in series [2] (average, predominantly through the liver) is 1,093 mL/min. Further, in series [2] (setting [4]), the absorption result is “low”, the extraction from plasma entry is given as “highly extracted” and the “oral bioavailability” value is “negligible”. In series [3] (after three weeks oral treatment, before treatment 28 (21%), p less than 0.05), the “excretion of injected radioactivity calculated from whole body data” value is reported as 1.4 (0.7%). Moreover, the plasma cortisol values entry in series [3] (three weeks oral treatment) was “no changes”. In series [3] (three weeks oral treatment, twelve patients), the leucocyte scan images result was “improved (seven patients) or unchanged (five patients)”.
